Broadly, the IC50 is the concentration needed to halve the response being measured. In general, Ki refers to the equilibrium dissociation constant of an inhibitor or competing ligand from its target.

Results on four molecules are retold here after publication PMC9074662, “Discovery of dihydrooxazolo[2,3-a]isoquinoliniums as highly specific inhibitors of hCE2” (RSC Advances, 2019).

The target of one test is T1, hCE1 (Homo sapiens, UniProt P23141).
T1 construct: tissue Bioreclamation IVT lot no; X008067; host or cells: pooled human liver microsomes, 50 donors
T1 sequence (P23141 18-567): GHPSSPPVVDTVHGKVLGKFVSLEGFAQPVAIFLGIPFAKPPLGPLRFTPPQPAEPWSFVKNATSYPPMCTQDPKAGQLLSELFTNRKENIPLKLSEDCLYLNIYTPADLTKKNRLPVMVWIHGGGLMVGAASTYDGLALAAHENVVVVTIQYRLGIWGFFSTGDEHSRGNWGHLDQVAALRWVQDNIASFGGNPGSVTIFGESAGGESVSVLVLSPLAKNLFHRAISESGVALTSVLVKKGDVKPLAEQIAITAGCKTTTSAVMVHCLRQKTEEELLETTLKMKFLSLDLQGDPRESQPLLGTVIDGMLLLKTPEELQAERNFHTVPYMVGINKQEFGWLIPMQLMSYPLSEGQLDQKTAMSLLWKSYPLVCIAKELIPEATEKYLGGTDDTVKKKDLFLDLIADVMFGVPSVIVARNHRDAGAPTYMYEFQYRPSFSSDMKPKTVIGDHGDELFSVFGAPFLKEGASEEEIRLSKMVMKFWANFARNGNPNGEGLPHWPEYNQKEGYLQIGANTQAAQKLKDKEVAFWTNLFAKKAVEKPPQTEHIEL
In words: hCE1 inhibition assay (DME hydrolysis in human liver microsomes). The test is classed as biochemical. The conditions noted are these: DME probe substrate (3 μM), HLM, PBS pH 6.8, 37 °C. An excerpt:
We designed and synthesized more than 30 derivatives of DCZ0358. However, the five-ring quaternary ammonium component of some derivatives was unstable to decompose easily into its hydrolyzate 23b. With 12 stable compounds in hand, we conducted experiments to assay inhibitory activities against both hCE1 and hCE2 using a panel of fluorescent probe substrates.[33–36]D-Luciferin methyl ester (DME) was used as a probe substrate, and nevadensin (a specific hCE1 inhibitor) was used as a positive inhibitor control for hCE1. […] DME was used as a probe substrate for evaluating the inhibitory effects of all DCZ0358 derivatives on hCE1, while nevadensin (a specific hCE1 inhibitor) was used as a positive control.[39] Briefly, 100 μL incubation mixture containing 91 μL PBS (pH 6.8), 2 μL inhibitor at different concentrations and 5 μL HLM (1 μg mL^−1, final concentration), were pre-incubated at 37 °C for 10 min. Subsequently, 2 μL DME (3 μM final concentration, close to the Km value of DME in HLM) was added to initiate the reaction. After incubating for 10 min at 37 °C in a shaking bath, the reaction was stopped by the addition of LDR (100 μL). The microplate reader (SpectraMax® iD3, Molecular Devices, Austria) was used for luminescence measurements. The gain value of luminescence detection was set at 140 volts, and the integration time was set at 1 s. The chemical structure of DME and its hydrolytic metabolite (D-luciferin), as well as the detection conditions for D-luciferin are depicted in Table S1. ^† The negative control incubation (DMSO only) was carried out under the same conditions. The residual activity was calculated using the following formula, the residual activity (%) = (the florescence intensity in the presence of inhibitor)/the florescence intensity in negative control × 100%. The residual activities are show in Fig. S1. ^†

For a further test, the target named is T2, hCE2 (Homo sapiens, UniProt O00748).
T2 construct: tissue Bioreclamation IVT lot no; X008067; host or cells: pooled human liver microsomes, 50 donors
T2 sequence (O00748 27-559): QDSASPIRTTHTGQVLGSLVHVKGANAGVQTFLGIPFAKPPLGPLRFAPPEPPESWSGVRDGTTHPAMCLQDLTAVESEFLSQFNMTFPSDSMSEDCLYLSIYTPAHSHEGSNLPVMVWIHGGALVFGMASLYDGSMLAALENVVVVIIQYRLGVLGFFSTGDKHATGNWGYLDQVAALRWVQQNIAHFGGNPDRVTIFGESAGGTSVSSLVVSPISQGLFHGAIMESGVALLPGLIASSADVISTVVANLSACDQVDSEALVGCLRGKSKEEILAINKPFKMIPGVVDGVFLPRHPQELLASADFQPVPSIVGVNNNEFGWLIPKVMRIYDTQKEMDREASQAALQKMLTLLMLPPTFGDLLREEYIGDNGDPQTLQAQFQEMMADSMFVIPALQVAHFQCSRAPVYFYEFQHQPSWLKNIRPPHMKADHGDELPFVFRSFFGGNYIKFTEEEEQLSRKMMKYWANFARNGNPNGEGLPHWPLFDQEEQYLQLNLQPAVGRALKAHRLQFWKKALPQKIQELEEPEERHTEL
Kind of test: hCE2 inhibition assay (FD hydrolysis in human liver microsomes). The conditions noted are these: for IC50: FD probe substrate (5 μM), HLM, PBS pH 7.4, 37 °C; for Selectivity IC50(hCE1)/IC50(hCE2): ratio of IC50 values, hCE2 over hCE1 selectivity (fold). In kind it is biochemical. How it is done:
In brief, 200 μL incubation mixture containing 0.1 M PBS (PH = 7.4), human liver microsomes (2 μg mL^−1, final concentration) and each inhibitor. […] After incubating for 30 min at 37 °C in a shaking bath, the reaction was stopped by the addition of acetonitrile (200 μL). The chemical structure of FD and its hydrolytic metabolite (fluorescein), as well as the detection conditions for fluorescein are depicted in Table S1. ^† The negative control incubation (DMSO only) was also carried out under the same conditions.[42] The residual activity was calculated using the formula mentioned above in hCE1 inhibition assay.
For orientation: Liver microsomes are a subcellular fraction often used to study metabolism.

In a further test the target is T3, intracellular hCE2 (Homo sapiens, UniProt O00748).
T3 construct: endogenous in cells; host or cells: HepG2
T3 sequence (O00748 27-559): T2 sequence (O00748 27-559)
In words: Inhibition of intracellular hCE2 in living HepG2 cells (NCEN hydrolysis, fluorescence imaging). In kind it is cell-based. How it is done: In view of that hCE2 was an intracellular enzyme, the inhibition potential of 23o was investigated in living HepG2 cells. The HepG2 cells were cultured in Modified Eagle's Medium (MEM) with 5% CO2 and 0.1% antibiotic–antimycoticmix antibiotic at 37 °C, supplemented with 10% fetal bovine serum (FBS) and used NCEN as substrate probe to assay the 23o inhibition potential toward hCE2.
For fluorescence imaging, HepG2 cells were seeded in 96-well plates (8000 cells per well) with complete medium and then incubated for 24 hours. Afterwards, the cells were washed twice with FBS-free culture medium and then preincubated in the medium containing 23o (prepared in FBS-free at various concentrations) for 30 min with 5% CO2 at 37 °C. HepG2 cells were then co-incubated with NCEN (final concentration, 10 μM) for another 50 min to assess the intracellular hCE2 function, respectively. The living cells were imaged and analyzed using an ImageXpress® Micro Confocal High-Content Imaging system (Molecular Devices, Austria).

The structures appear in SMILES notation. Values joined by “and” are separate entries in the source; they are usually repeats but may differ in a detail not shown here. Equal values may be shown once.

On to `COc1ccc(-c2cc3ccc(OC)c(OC)c3c3[n+]2C(OC)CO3)cc1OCc1ccc(-c2ccccc2)cc1` (stereo not shown) [Compound 23l, 5-(3-([1,1′-Biphenyl]-4-ylmethoxy)-4-methoxyphenyl)-3,9,10-trimethoxy-2,3-dihydrooxazolo[2,3-a]isoquinolin-4-ium], for which the IC50 at hCE1 was > 100 µM. Further, on hCE2, the IC50 amounted to 2.64 ± 0.45 µM and the “Selectivity IC50(hCE1)/IC50(hCE2)” value is reported as >37.89.

Regarding `COc1ccc(-c2cc3ccc(OC)c(OC)c3c3[n+]2C(OC)CO3)cc1OCc1ccc(C(C)(C)C)cc1` (stereo not shown) [Compound 23m, 5-(3-((4-(tert-Butyl)benzyl)oxy)-4-methoxyphenyl)-3,9,10-trimethoxy-2,3-dihydrooxazolo[2,3-a]isoquinolin-4-ium], on hCE1, the IC50 was > 100 µM. At hCE2, the IC50 turned out to be 2.33 ± 0.2 µM and the “Selectivity IC50(hCE1)/IC50(hCE2)” value is listed as >42.81.

As for `COc1ccc(-c2cc3ccc(OC)c(OC)c3c3[n+]2C(OC)CO3)cc1OCc1ccc(C(C)C)cc1` (stereo not shown) [Compound 23n, 5-(3-((4-Isopropylbenzyl)oxy)-4-methoxyphenyl)-3,9,10-trimethoxy-2,3-dihydrooxazolo[2,3-a]isoquinolin-4-ium], on hCE1, the IC50 was > 100 µM. Also, at hCE2, the IC50 came out at 1.66 ± 0.21 µM and the “Selectivity IC50(hCE1)/IC50(hCE2)” value is >60.31.

On to `COc1cc(COc2cc(-c3cc4ccc(OC)c(OC)c4c4[n+]3C(OC)CO4)ccc2OC)cc(OC)c1` (stereo not shown) [Compound 23o, 5-(3-((3,5-Dimethoxybenzyl)oxy)-4-methoxyphenyl)-3,9,10-trimethoxy-2,3-dihydrooxazolo[2,3-a]isoquinolin-4-ium], for which the IC50 against hCE1 is > 100 µM; at hCE2 it was 1.19 µM; on intracellular hCE2 (HepG2 cells, NCEN 10 μM substrate, read-out: IC50 against intracellular hCE2 in living HepG2 cells), 2.29 µM. In addition, the Ki on hCE2 (Lineweaver-Burk plots, FD substrate, read-out: Ki against hCE2-mediated FD hydrolysis) was 0.84 µM and 0.843 µM. At hCE2 (inhibition kinetics, FD substrate), the “Inhibition mode against hCE2-mediated FD hydrolysis” value is recorded as “mixed inhibitor”. The “Selectivity IC50(hCE1)/IC50(hCE2)” value on hCE2 was >83.89. For the same molecule, the “Inhibition of intracellular hCE2-mediated NCEN hydrolysis (fluorescence intensity, green channel)” value on intracellular hCE2 (living HepG2 cells, 0-20 μM, NCEN 10 μM, 50 min) was “strongly inhibit”.
